Test results: patent US8980335B2, “Use of organic acids and essential oils in animal feeding” (DSM IP Assets B.V., priority 2007, dated 2015)

Assays:
broiler chickens = test: Growth performance trial with broiler chickens (day 8 to day 29); assay type: in vivo, chickens (ROSS PM3); conditions: for Feed conversion (g feed/g gain) / Feed conversion relative to control (control 100.0) / Feed intake (g/bird) / Feed intake relative to control (control 100.0) / Weight gain (g/bird) / Weight gain relative to control (control 100.0): Day 8-29
Protocol: A growth performance trial with broiler chickens was performed from day 8 to day 29. The chickens were housed in wire-floored battery cages. From day-old until day 8, the chickens were fed a pre-experimental diet based on wheat, maize and soybean meal. In the experimental period (day 8 to 29) the chickens received diets based on wheat, rye and soybean meal (composition see Table 1). Groups of birds were weighed on days 8, 15, 22 and 29. The feed consumption for the intermediate periods was determined and body weight gain and feed conversion ratio were calculated.
Beside an un-supplemented control treatment and a positive control containing 10 mg of the antibiotic Avilamycin per kg feed, benzoic acid (VevoVitall) was included at 500 mg per kg feed. In addition, per kg feed, combinations of 250 mg benzoic acid and 50 mg of the composition comprising thymol, eugenol and piperine (herein abbreviated by TEP) as well as either 500 mg benzoic acid and 25 mg TEP or 500 mg benzoic acid and 50 mg TEP were tested, respectively.

pig = conditions: cited from earlier work
poultry = conditions: cited from earlier work

SMILES | Improvement in weight gain compared to the control (broiler chickens; Avilamycin 10 mg per kg feed) [%] | Improvement of feed conversion (FCR) compared to the negative control (broiler chickens; Avilamycin 10 mg per kg feed) [%] | Feed conversion (g feed/g gain) (broiler chickens; dose 10 mg/kg feed) | Feed conversion relative to control (control 100.0) (broiler chickens; dose 10 mg/kg feed) | Feed intake (g/bird) (broiler chickens; dose 10 mg/kg feed) | Feed intake relative to control (control 100.0) (broiler chickens; dose 10 mg/kg feed) | Weight gain (g/bird) (broiler chickens; dose 10 mg/kg feed) | Weight gain relative to control (control 100.0) (broiler chickens; dose 10 mg/kg feed) | Dosage in feed at which undesired adverse effects occur (pig) [mg/kg pig feed] | Dosage in feed at which undesired adverse effects occur (poultry) [mg/kg poultry feed] | Feed conversion (g feed/g gain) (broiler chickens; dose 500 mg/kg feed) | Feed conversion relative to control (control 100.0) (broiler chickens; dose 500 mg/kg feed) | Feed intake (g/bird) (broiler chickens; dose 500 mg/kg feed) | Feed intake relative to control (control 100.0) (broiler chickens; dose 500 mg/kg feed) | Weight gain (g/bird) (broiler chickens; dose 500 mg/kg feed) | Weight gain relative to control (control 100.0) (broiler chickens; dose 500 mg/kg feed) | Improvement in weight gain compared to the control (broiler chickens; VevoVitall alone at 500 mg/kg) [%]
COC[C@H]1O[C@@H](OC2OC[C@@H]3O[C@]4(O[C@H]3[C@H]2OC(=O)C(C)C)O[C@H](C)[C@@](O)(C(C)=O)[C@@H]2OCO[C@H]24)[C@@H](OC)[C@@H](O)[C@@H]1O[C@@H]1O[C@H](C)[C@H](OC)[C@H](O[C@H]2C[C@@]3(C)OC4(C[C@@H](O)[C@H](O[C@H]5C[C@@H](O)[C@H](OC(=O)c6c(C)c(Cl)c(O)c(Cl)c6OC)[C@@H](C)O5)[C@@H](C)O4)O[C@@H]3[C@@H](C)O2)[C@H]1O (some centres unmarked) [Avilamycin] | 8.7 | 4.3 | 2.008 ± 0.052 | 95.7 | 2533 ± 199.6 | 104.1 | 1261 ± 76.8 | 108.7 |  |  |  |  |  |  |  |  | 
O=C(O)c1ccccc1 [VevoVitall, benzoic acid] |  |  |  |  |  |  |  |  | > 10000 | > 5000 | 2.117 ± 0.093 | 100.8 | 2538 ± 309.6 | 104.3 | 1196 ± 103.0 | 103.1 | 3
